Measured values: ChEMBL document CHEMBL1201862, “PubChem BioAssay data set” (2004)
The source made the active and inactive calls.

Legend:
Aurora kinase A = Aurora kinase A (Homo sapiens, UniProt O14965); assay type: functional;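 also: value from the Navigating the Kinome kinase panel profiling, panel entry STK6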
[1] = biological target: Serine/threonine-protein kinase Chk1 (Homo sapiens, UniProt O14757); assay type: functional;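 also: measured as one member of a kinome-wide kinase profiling panel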
[2] = tested on: Streptococcus sp. 'group A'; assay: Streptococcus pyogenes SK(-)GAS viability under kanamycin – luminescence, BacTiterGlo, confirmation, counter-screen for streptokinase expression inhibitor project, dose response (AID 1900); assay type: functional, organism-based
Streptokinase A = biological target: T1, Streptokinase A (Streptococcus pyogenes serotype M1, UniProt P10520); assay: viability-normalized secreted streptokinase activity reduction – plasminogen activation absorbance, OD405, dose response (AID 1914); assay type: functional, Streptococcus pyogenes M1 GAS;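 also: secreted streptokinase activity via plasminogen activation per viability signal from cell pellet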
T1 sequence (P10520 whole entry): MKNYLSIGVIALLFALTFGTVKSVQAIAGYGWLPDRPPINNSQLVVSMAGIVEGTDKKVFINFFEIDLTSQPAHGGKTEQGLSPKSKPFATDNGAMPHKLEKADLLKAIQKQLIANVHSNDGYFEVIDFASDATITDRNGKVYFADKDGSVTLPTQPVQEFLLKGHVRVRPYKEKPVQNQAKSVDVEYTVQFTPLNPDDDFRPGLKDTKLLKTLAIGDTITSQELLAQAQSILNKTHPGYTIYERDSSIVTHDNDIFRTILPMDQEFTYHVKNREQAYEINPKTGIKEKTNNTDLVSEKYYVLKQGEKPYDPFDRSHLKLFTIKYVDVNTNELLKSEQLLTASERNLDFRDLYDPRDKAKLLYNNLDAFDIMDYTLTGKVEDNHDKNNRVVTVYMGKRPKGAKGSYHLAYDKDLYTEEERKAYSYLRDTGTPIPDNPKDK

[3] = viability of PTEN-deleted HCT116 cells – cell-based, HCT116 PTEN knockout, dose response (AID 1047); assay type: functional;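 also: HCT116 colon tumor cells with PTEN knocked out; cells exposed to compound for 60 hours before readout; potency for loss of cell viability measured by luminescence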
[4] = biological target: T2, Sphingosine 1-phosphate receptor 4 (Homo sapiens, UniProt O95977); assay: Late stage fluorescence dose response cell-based screening assay for antagonists of the Sphingosine 1-Phosphate Receptor 4 (S1P4). [Related pubchem assays: 1524 (Confirmation screen (S1P4 antagonists).), 1510 (Primary screen (S1P4 antagonists).), 1853 (Summary AID (S1P4 antagonists).), 1692 (Dose response screen (S1P4 antagonists).)]; assay type: functional
T2 sequence (O95977 whole entry): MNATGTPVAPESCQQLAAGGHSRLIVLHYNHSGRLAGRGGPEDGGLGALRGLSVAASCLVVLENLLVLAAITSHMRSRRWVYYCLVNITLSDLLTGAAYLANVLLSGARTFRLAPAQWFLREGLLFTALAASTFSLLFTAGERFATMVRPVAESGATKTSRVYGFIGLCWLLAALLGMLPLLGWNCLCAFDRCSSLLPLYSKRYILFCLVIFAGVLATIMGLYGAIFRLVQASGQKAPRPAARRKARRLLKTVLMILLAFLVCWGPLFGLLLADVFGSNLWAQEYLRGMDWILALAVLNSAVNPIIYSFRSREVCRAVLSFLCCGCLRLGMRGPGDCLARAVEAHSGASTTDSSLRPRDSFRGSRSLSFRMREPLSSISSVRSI

[5] = viability of HCT116 lacking mutant beta-catenin – cell-based, human colon tumor, dose response (AID 1045); assay type: functional;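 also: HCT116 colon tumor cells with beta catenin knocked out; cells exposed to compound for 60 hours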
[6] = biological target: T2, Sphingosine 1-phosphate receptor 4; assay: Fluorescence dose response cell-based high throughput screening assay for antagonists of the Sphingosine 1-Phosphate Receptor 4 (S1P4). [Related pubchem assays: 1524 (Confirmation in triplicates.), 1510 (Primary screen.)]; assay type: functional
[7] = biological target: Sphingosine 1-phosphate receptor 1 (Homo sapiens, UniProt P21453); assay type: functional;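 also: Tango beta-arrestin reporter U2OS cells stimulated with S1P near its EC80; inhibitor potency meaning antagonism of receptor activation by the natural agonist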
Streptococcus = assay: GAS UMAA2166 growth inhibition – luminescence, BacTiterGlo, counter-screen for streptokinase expression inhibitor project, dose response (AID 1915); assay type: functional, organism-based;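 also: potency for reduction of bacterial viability or growth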
[8] = Luminescence Cell-Based Dose Retest to Confirm Inhibitors of Cancer Stem Cells. [Related pubchem assays (depositor defined):AID2717, AID2721]; assay type: functional; conditions: Homo sapiens
[9] = biological target: T3, Replicative DNA helicase DnaB (Mycobacterium tuberculosis, UniProt P9WMR3); assay: DnaB intein splicing inhibitors, dose response, biochemical, cell-free fluorescence (AID 449749); assay type: functional
T3 sequence (P9WMR3 whole entry): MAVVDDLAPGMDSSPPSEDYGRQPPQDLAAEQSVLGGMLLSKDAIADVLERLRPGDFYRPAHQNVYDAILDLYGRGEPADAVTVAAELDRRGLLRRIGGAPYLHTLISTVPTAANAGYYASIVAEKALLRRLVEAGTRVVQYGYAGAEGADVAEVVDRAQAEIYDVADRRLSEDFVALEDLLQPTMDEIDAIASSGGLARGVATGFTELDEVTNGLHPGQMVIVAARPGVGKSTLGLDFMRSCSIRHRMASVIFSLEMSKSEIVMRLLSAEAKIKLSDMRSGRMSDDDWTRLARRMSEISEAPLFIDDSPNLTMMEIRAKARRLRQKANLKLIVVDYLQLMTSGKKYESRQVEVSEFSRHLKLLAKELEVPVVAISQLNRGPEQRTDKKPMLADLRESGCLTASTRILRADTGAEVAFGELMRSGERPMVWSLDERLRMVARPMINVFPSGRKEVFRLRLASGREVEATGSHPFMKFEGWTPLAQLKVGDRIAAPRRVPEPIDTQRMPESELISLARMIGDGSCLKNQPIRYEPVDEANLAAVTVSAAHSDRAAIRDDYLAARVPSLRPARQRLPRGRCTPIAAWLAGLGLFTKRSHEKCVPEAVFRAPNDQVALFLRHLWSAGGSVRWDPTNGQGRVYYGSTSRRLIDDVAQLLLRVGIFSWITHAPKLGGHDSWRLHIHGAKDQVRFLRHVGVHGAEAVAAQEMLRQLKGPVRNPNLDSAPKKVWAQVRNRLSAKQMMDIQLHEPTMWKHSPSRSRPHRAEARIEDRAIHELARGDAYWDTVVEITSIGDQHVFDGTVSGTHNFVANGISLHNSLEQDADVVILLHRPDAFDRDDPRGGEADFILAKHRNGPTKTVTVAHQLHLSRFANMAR

Protein RecA = biological target: T4, Protein RecA (Mycobacterium tuberculosis, UniProt P9WHJ3); assay: Fluorescence Cell-Free Homogeneous Dose Retest to Identify Inhibitors of RecA-Intein Splicing Activity. [Related pubchem assays (depositor defined):AID2097, AID2223, AID489010, AID492950]; assay type: functional
T4 sequence (P9WHJ3 whole entry): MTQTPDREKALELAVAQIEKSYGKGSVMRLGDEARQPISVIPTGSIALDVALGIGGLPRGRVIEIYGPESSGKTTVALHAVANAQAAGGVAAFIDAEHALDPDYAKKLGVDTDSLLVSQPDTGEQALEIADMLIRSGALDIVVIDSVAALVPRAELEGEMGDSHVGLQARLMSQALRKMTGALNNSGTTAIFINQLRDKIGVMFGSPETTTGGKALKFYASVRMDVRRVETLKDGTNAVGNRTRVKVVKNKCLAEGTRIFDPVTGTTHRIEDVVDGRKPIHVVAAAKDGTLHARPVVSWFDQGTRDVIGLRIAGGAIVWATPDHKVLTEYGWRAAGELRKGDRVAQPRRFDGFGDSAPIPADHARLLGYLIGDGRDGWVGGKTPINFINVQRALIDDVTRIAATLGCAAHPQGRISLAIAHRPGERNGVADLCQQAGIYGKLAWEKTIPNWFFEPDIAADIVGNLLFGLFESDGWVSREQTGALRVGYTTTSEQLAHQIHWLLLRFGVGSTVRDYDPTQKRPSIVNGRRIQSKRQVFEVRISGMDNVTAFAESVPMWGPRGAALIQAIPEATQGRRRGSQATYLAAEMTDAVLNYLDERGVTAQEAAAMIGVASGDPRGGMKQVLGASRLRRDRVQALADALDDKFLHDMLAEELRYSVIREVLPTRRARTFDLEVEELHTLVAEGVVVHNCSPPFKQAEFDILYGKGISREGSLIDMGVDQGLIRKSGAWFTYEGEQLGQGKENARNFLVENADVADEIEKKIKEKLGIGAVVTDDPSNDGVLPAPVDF

Melanocortin receptor 4 = Melanocortin receptor 4 (Homo sapiens, UniProt P32245); assay: inhibitors of MC4R cAMP signaling – cell-based, TR-FRET, biased antagonists, dose response (AID 602298); assay type: functional;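 also: antagonist potency against agonist-stimulated cAMP production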
[10] = cAMP pathway inhibition in counterscreen cell line – TR-FRET cAMP detection, counter-screen for MC4R biased antagonist project, dose response (AID 602305); assay type: functional, cell-based;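 also: U2OS cells stimulated with forskolin near its EC80 as the cAMP inducer; potency is for inhibition of forskolin-stimulated cAMP signaling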
[11] = biological target: T5, Protein disulfide-isomerase (Homo sapiens, UniProt P07237); assay: inhibition of PDI-driven insulin aggregation – biochemical, turbidity, absorbance, cherry-picked samples, dose response (AID 602350); assay type: functional
[12] = biological target: T5, Protein disulfide-isomerase; assay: inhibition of PDI-mediated insulin reduction – biochemical, turbidity, absorbance, cherry-picked samples, set 2, dose response (AID 624274); assay type: functional

T5 sequence (P07237 whole entry): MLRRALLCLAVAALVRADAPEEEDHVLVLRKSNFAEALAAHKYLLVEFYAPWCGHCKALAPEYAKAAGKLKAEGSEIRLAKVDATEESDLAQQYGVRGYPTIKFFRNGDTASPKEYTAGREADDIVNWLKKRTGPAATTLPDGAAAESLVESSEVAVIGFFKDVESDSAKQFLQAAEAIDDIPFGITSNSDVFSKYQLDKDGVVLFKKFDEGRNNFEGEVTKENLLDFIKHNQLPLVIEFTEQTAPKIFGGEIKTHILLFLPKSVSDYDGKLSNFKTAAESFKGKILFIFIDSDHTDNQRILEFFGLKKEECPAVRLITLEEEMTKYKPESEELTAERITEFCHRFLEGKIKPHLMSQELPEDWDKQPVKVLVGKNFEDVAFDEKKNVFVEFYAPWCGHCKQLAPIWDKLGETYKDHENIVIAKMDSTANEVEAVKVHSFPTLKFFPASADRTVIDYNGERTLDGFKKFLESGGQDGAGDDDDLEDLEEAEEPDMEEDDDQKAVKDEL
Sequence of Sphingosine 1-phosphate receptor 1 (P21453 whole entry): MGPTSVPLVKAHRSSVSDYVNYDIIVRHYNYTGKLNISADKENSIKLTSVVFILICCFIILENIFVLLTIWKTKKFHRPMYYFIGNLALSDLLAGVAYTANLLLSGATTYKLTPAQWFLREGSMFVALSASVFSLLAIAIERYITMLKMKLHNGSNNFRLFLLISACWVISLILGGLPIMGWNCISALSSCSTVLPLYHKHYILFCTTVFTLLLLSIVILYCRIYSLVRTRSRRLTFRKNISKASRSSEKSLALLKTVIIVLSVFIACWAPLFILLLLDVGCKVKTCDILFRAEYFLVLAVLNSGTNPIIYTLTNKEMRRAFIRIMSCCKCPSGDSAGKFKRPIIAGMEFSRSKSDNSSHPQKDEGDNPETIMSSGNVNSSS
Sequence of Serine/threonine-protein kinase Chk1 (O14757 whole entry): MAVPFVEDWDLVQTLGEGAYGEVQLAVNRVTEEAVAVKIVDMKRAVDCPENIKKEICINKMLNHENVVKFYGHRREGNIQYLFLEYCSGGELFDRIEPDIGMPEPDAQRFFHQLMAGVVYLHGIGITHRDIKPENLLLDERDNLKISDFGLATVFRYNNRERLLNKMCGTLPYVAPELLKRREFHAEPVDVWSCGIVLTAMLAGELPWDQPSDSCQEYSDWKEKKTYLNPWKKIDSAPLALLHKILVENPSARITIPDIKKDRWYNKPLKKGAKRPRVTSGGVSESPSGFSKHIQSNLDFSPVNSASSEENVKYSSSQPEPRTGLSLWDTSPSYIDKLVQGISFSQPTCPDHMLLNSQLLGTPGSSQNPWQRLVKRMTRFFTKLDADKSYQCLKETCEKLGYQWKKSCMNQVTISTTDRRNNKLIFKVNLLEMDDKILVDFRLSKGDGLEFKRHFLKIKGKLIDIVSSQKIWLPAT
Sequence of Melanocortin receptor 4 (P32245 whole entry): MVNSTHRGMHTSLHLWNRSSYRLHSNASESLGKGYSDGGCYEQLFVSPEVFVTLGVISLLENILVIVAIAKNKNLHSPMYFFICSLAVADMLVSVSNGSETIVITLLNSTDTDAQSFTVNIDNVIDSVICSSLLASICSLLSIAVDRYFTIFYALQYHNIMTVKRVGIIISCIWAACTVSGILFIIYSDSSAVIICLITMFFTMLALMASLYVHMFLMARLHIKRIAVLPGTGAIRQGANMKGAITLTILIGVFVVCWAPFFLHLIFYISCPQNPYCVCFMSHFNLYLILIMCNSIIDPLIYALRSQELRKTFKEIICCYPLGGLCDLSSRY
Sequence of Aurora kinase A (O14965 whole entry): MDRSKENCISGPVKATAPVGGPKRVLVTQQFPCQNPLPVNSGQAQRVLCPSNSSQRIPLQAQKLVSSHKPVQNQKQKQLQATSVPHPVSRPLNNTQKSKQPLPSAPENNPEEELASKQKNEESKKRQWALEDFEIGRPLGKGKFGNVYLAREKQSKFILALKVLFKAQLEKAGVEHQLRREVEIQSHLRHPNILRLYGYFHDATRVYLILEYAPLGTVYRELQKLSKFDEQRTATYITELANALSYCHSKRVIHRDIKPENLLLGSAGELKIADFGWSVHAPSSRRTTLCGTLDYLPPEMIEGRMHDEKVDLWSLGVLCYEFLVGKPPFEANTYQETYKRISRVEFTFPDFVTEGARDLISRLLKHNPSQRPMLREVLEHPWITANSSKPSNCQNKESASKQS

In the case of `CN(C)c1ncnc2[nH]ncc12`, the Ki (Aurora kinase A) was 12.6 µM (active) and the Ki [1] was 5.01 µM (active).

With `O=[N+]([O-])c1cc(S(=O)(=O)C(F)(F)F)ccc1Sc1nc2ccccc2[nH]1` the EC50 [2] was 5.93 µM (active), the EC50 (Streptokinase A) was > 150 µM (not active) and the EC50 [3] was 7.22 µM (active). For the same molecule, the IC50 [4] was 0.77 µM (active), the EC50 [5] was 6.72 µM (active) and the IC50 [6] was 1.29 µM (active). For the same molecule, the IC50 [7] was 34.3 µM (not active), the EC50 (Streptococcus) was 11.9 µM (active) and the AC50 [8] was 4.04 µM (active). The AC50 [9] was 2.83 µM (active), the EC50 (Protein RecA) was 0.774 µM (active) and the IC50 (Melanocortin receptor 4) was 7.65 µM (active). For the same molecule, the IC50 [10] was > 64.6 µM (inactive).

In the case of `O=C1NC(Cc2ccc(O)cc2)c2nc3ccccc3c(=O)n2-c2ncccc21` (configuration not stated), the AC50 [11] was < 0.009 µM (active) and the AC50 [12] was 0.009 µM (active).
